Test results reported in PMC9653453, “Development of truncated elastin-like peptide analogues with improved temperature-response and self-assembling properties” (Scientific Reports, 2022).
Values joined by “and” are separate entries in the source; they are usually repeats but may differ in a detail not shown here. Equal entries are not always repeated. Ends that are not written are not given here.

How the values were obtained:
[1] = Dynamic light scattering (DLS) size distribution of coacervates; assay type: physicochemical; conditions: phosphate buffer pH 7.4; for Temperature-dependent particle size by DLS (in words): 10 to 50 ℃ in 10 ℃ steps, peptide concentrations as in Fig. 3 (2.0-50 mg/mL); for Hydrodynamic diameter (DLS): peptide 10 mg/mL, filtered 0.2 µm
Method: The distribution of the particle size in the truncated ELP analogue solution was analyzed via DLS using Zetasizernano ZS (Malvern Instruments Ltd., Worcestershire, U.K.) in a measurement cell ZEN0112 (Malvern Instruments Ltd.)[33]. Peptide samples of different concentrations (2.0, 10, 20, 30, or 50 mg/mL) were prepared by dissolving each peptide in phosphate buffer (27.4 mM Na2HPO4, 17.8 mM NaH2PO4, pH 7.4) and filtered using the Millex-LG filter (pore size 0.2 µm, Merck Millipore) before measurement. DLS analysis was performed by increasing the temperature at 10 ℃ intervals from 10 to 50 ℃. Measurement duration was selected automatically. Parameter dataset “protein” (dataset: refractive index, 1.450; absorption, 0.001) was used as the material parameter, and parameter dataset “water” (dataset: refractive index, 1.330; viscosity, 0.8872) was chosen as the dispersant parameter. Attenuation was selected automatically. Each concentration was measured at least three times.

[2] = Turbidity measurement (phase transition temperature Tt, coacervation) in phosphate buffer pH 7.4; assay type: physicochemical; conditions: for Coacervation on heating (in words): peptide 50 mg/mL (69.5 mM); for Tt, phase transition temperature: heating 0.5 ℃/min from 5 ℃, mean ± SE, at least three measurements
Method: Turbidity measurements were performed in accordance with previous reports. The temperature-dependent self-assembling properties of the ELP analogues were evaluated using a JASCO V-660 spectral photometer (JASCO Co., Tokyo, Japan). Peptide sample solutions of different concentrations (2.0, 5.0, 10, 20, 30, or 50 mg/mL) were prepared by dissolving each peptide (except for AADAAC-(FPGV)n) in phosphate buffer (27.4 mM Na2HPO4, 17.8 mM NaH2PO4, pH 7.4). AADAAC-(FPGV)4 was dissolved in Tris–HCl buffer solution (50.0 mM Tris, at pH 8.4 or 50.0 mM Tris, 154 mM NaCl, at pH 8.4) to prepare sample solutions of a concentration of 0.5 or 10 mg/mL in the absence or presence of the equimolar amount of CdCl2. Turbidity was measured at 400 nm with increasing or decreasing temperature at a rate of 0.5 ℃/min from 5 ℃. The concentration of each sample solution was measured at least three times. The self-assembling property was described by the phase transition temperature (Tt), which is the temperature at which the turbidity of the solution reaches half the maximum value.

[3] = RP-UPLC retention time, used as measure of peptide hydrophobicity; assay type: physicochemical; conditions: RP-UPLC-MS; chromatographic
Method: Peptide synthesis was carried out using the conventional solid-phase peptide synthesis procedure (see supplementary information). The synthesized peptides were purified using RP-HPLC. The purity and molecular weight of each peptide were confirmed using RP-UPLC-MS (Table S1 and Fig. S1). […]
Retention times of each peptide were determined by RP-UPLC-MS.

[4] = Turbidity measurement (phase transition temperature Tt, coacervation) in phosphate buffer pH 7.4; assay type: physicochemical; conditions: peptide 1.0 mg/mL, turbidity at 400 nm, heating 0.5 ℃/min from 5 ℃, half-maximal turbidity, mean ± SE, at least three measurements
[5] = Optical microscopy of peptide aggregates with image analysis of particle size; assay type: physicochemical; conditions: peptide 10 mg/mL, phosphate buffer pH 7.4
Method: The morphology of the coacervates of (FPGVG)4, (FPGV)4, and (FPG)4 was observed using optical microscopy. Light field observation was performed using a Leica DM IL LED microscope (Leica Microsystems CMS, Wetzlar, Germany) equipped with HI PLAN 40 × (Leica Microsystems CMS) and HC PLAN 10 × (Leica Microsystems CMS) objectives. Each peptide was dissolved in phosphate buffer (27.4 mM Na2HPO4, 17.8 mM NaH2PO4, at pH 7.4) to a concentration of 10 mg/mL and applied on a glass slide. Sample imaging was performed below and above the Tt of each peptide using a Thermo Plate TP-CHSQM (Tokai Hit Co., Ltd., Shizuoka, Japan). Sample images above Tt were taken 3 min after the sample reached the target temperature. The details of the image analysis is shown in the Supplementary Information file.
Size distribution of coacervates of ELP analogues formed above the Tt was analyzed using optical microscopy images of each peptide. Image analysis was performed using Image J/Fiji (NIH, USA), an open-source image analysis software.^2 Spatial calibration was carried out using […] in original images. The images of peptide coacervates were converted to a binary image via the menu command Image > Type > 8-bit. Using "analyze particle" command, the Feret diameters of the particles within the image were measured.

[6] = Colorimetric (xylenol orange) determination of Cd^2+ removal by peptide coacervation; conditions: peptide 1.0 mg/mL, mean ± SE
Method: Colorimetric analyses of cadmium ions (Cd^2+) were carried out to evaluate the number of metal ions absorbed into the coacervation phase of the peptides by using a spectral photometer (JASCO V-660)[45]. […] The peptide solutions were incubated at 4 ℃ for 3, 6, or 12 h and then at 60 ℃ for 1.5 h to separate into the lower coacervation phase from the upper equilibrium solution phase. After incubation, the peptide solution was immediately centrifuged at room temperature for 2 min (6,200 rpm) to remove aggregates. An aliquot of 333 µL of supernatant of the equilibrium solution phase was added to 600 µL of acetate buffer solution (pH5.4) including 67 μM of XO and incubated for 10 min. Subsequently, the concentrations of Cd^2+ or Zn^2+ were determined by measuring the absorbance at 575 nm or 550 nm, respectively, which corresponds to the absorbance of the metal-XO complex. The amount of metal ions absorbed in the peptide solution was determined by the calibration line, which was prepared in the same manner by using a series of standard CdCl2 or ZnCl2 aqueous solutions of known concentrations. The homogeneity of variances between the concentration of each metal ion in the supernatant and the control solution was confirmed using the F test. The statistical significance of the difference between the concentration of each metal ion in the supernatant and the control solution was determined using the Student's t-test. Results were considered statistically significant at P values of ≤ 0.01.

[7] = phosphate buffer pH 7.4, turbidity at 400 nm
[8] = peptide 5.0 mg/mL, phosphate buffer pH 7.4, turbidity at 400 nm, half-maximal turbidity
[9] = peptide 10 mg/mL, phosphate buffer (27.4 mM Na2HPO4, 17.8 mM NaH2PO4, pH 7.4), turbidity at 400 nm, Tt = temperature at half-maximal turbidity
[10] = peptide 2.0 mg/mL, phosphate buffer pH 7.4, turbidity at 400 nm, half-maximal turbidity

| Substance | Temperature-dependent particle size by DLS (in words) [1] | UPLC retention time (measure of hydrophobicity) [3] [min] | Tt, phase transition temperature [2, 8] [°C] | Tt, phase transition temperature [2, 9] [°C] | also measured |
| --- | --- | --- | --- | --- | --- |
| FPGFPGV-NH2 [(FPG)(FPGV), H-(FPG)(FPGV)-NH2] | did not show micrometer-sized particles | 0.760 |  |  | Coacervation on heating (in words) [2, 7]: did not show coacervation |
| FPGVFPGVFPGV-NH2 [(FPGV)3] | formed sub-micron particles below Tt, which grew into micrometer-sized particles above Tt | 1.739 | 71.6 ± 0.8 | 45.2 ± 0.9 |  |
| FPGVFPGV-NH2 [(FPGV)2] | did not show micrometer-sized particles | 0.583 |  |  | Turbidity change / coacervation on heating (in words) ([2]; peptide 30 mg/mL (36.7 mM), phosphate buffer pH 7.4, turbidity at 400 nm): did not exhibit turbidity change |
| FPGVGFPGVGFPGVGFPGVGFPGVG-NH2 [(FPGVG)5, reference compound] |  | 2.691 | 25.6 ± 1.2 | 20.5 ± 0.1 | Hydrodynamic diameter (DLS) ([1]; at 10 ℃, Zetasizer cumulant fit): approximately 3 nm; Hydrodynamic diameter (DLS) ([1]; at temperatures above 20 ℃): 3–5 µm; Tt, phase transition temperature [4]: 56.6 ± 1.3 °C; Tt, phase transition temperature [2, 10]: 39.0 ± 0.2 °C |
| VFPGVFPGVFPGVFPG-NH2 [(VFPG)4, H-(VFPG)n-NH2 (n = 4)] |  | 2.493 |  | 45.3 ± 0.6 |  |
| FPGVFPGVFPGVFPGV-NH2 [(FPGV)4] | rapidly formed micrometer-sized particles at 20 °C | 2.431 | 23.4 ± 0.1 | 17.0 ± 0.2 | Tt, phase transition temperature [4]: 51.3 ± 0.1 °C; Tt, phase transition temperature [2, 10]: 36.7 ± 0.3 °C; Morphology of aggregates (optical microscopy, in words) [5]: spherical aggregates; Particle size of coacervates (optical microscopy image analysis, Feret diameter) ([5]; above Tt ((FPGVG)4 40 °C, (FPGV)4 25 °C), ImageJ/Fiji): 2–4 µm; Concentration of metal ion in the supernatant ([6]; Cd^2+ (0.236 mM CdCl2), incubation 12 h at 4 ℃ then 60 ℃ 1.5 h, Tris-HCl (50.0 mM Tris, 599 mM NaCl, pH 8.0), at least three measurements): 19.0 ± 0.97 ppm; Removal efficiency ([6]; Cd^2+, incubation 12 h, versus control without peptide): 27.2% and 27.2 ± 0.04% |
| FPGVFPG-NH2 [(FPGV)(FPG)] | did not show micrometer-sized particles | 0.466 |  |  | Coacervation on heating (in words) [2, 7]: did not show coacervation |
| FPGFPGFPGFPG-NH2 [(FPG)4, H-(FPG)4-NH2] | formed irreversible aggregates in the aqueous solution at 10 °C | 1.835 |  |  | Aggregation behaviour in aqueous solution (in words) ([2]; peptide 10 mg/mL, aqueous solution / phosphate buffer pH 7.4, with elapsed time without a temperature rise): formed irreversible aggregates; Morphology of aggregates (optical microscopy, in words) [5]: filamentous aggregates |
